These are literature values, as cited in patent US20070021351A1, “Liver/plasma concentration ratio for dosing hepatitis C virus protease inhibitor” (Schering Corporation, priority 2005, published 2007).

For this data set the following is noted: in vivo; cited from earlier work.

Take `C[C@H]1O[C@@H](O[C@H]2[C@@H](O)C[C@H](O[C@H]3[C@@H](O)C[C@H](O[C@H]4CC[C@@]5(C)[C@H](CC[C@@H]6[C@@H]5C[C@@H](O)[C@]5(C)[C@@H](C7=CC(=O)OC7)CC[C@]65O)C4)O[C@@H]3C)O[C@@H]2C)C[C@H](O)[C@@H]1O` [digoxin, reference compound]: the volume of distribution is around 450 L. Regarding `CCO` [ethanol, Ethanol], the volume of distribution entry is recorded as “about 35 L”.
